Measured values as given in PubChem BioAssay AID1963862 (Molecular Pharmacology Branch, DTP, NCI, 2024).

Tested on: KRAS patient-derived spheroids with HUVEC/MSC, viability
Assay: Anticancer human tumor 941728-121-R-J1-PDC patient-derived lung adenocarcinoma cell line growth inhibition [KRAS2]
Details: for viability, T/C: stronger effect = lower value
Source text: Multicellular complex tumor spheroid response to RAS pathway inhibitors in combination with a targeted agents in patient-derived cell lines with oncogenic KRAS variants from multiple cancer types
A high-throughput screen of multi-cell type tumor spheroids was designed to identify active combinations of targeted small molecules and KRAS pathway inhibitors. Complex spheroids include a stromal component modeled by human endothelial cells (HUVEC) and fibroblasts modeled by human mesenchymal stem cells (MSCs). The concentration ranges selected for each drug and investigational agent were based upon clinically achievable concentrations if the clinical Cmax of the agent was known.
Compounds. The drugs and investigational agents: BI-3406 (NSC825286), BAY-293 (NSC824723), batoprotafib (TNO155; NSC825523), sotorasib (AMG 510; NSC818433), MRTX1257 (NSC819558), elimusertib (BAY 1895344; NSC800525), molibresib (GSK525762; NSC774829), temuterkib (LY3214996; NSC803410), venetoclax (NSC766270), alisertib (NSC759677), olaparib (NSC753686), talazoparib (NSC767125), erdafitinib (NSC781556), ipatasertib (NSC767898), cabozantinib (NSC761068), nintedanib (NSC756659), abemaciclib (NSC768073), docetaxel (NSC628503), trametinib (NSC758246), and sapanisertib (NSC764658) were obtained from the National Cancer Institute (NCI) Developmental Therapeutics Program Chemical Repository. The FDA-approved anticancer drug set is available from the Developmental Therapeutics Program. […] The stock solutions were prepared in dimethyl sulfoxide (DMSO, Sigma-Aldrich, St. Louis, MO, cat. D2650) at 800-fold the tested concentration and stored at -70 degrees C prior to their use. All drugs and investigational agents were tested over a range starting from a high concentration at or near the clinical Cmax and decreasing in half-log increments. If the clinical Cmax for an agent had not been determined, the highest concentration tested was 10 microM.
Cell Culture. All cells were maintained in an incubator at 37 degrees C and 5% CO2 with 95% humidity. The PDC lines were cultured according to standard operating procedures established by the NCI PDMR (https://pdmr.cancer.gov/sops/default.htm). Briefly, all PDCs were thawed and cultured in Matrigel-coated flasks prepared with a working solution of 1X Ham's F-12 nutrient mix, without supplementation (Invitrogen, Waltham, MA, cat. 11765054), 100 U/mL penicillin-streptomycin (Invitrogen, cat. 15140122), and 2.5% Matrigel (Corning Inc., Corning, NY, cat. 354248) for the first three passages. All PDCs were cultured in complete DMEM/F-12 media containing advanced DMEM/F-12 (Invitrogen, cat. 12634028), 4.9% defined fetal bovine serum, heat inactivated (HyClone Laboratories Inc., Logan, UT, cat. SH30070.03HI), 389 ng/mL hydrocortisone (Sigma-Aldrich, cat. H4001), 9.7 ng/mL human EGF recombinant protein (Invitrogen, cat. PHG0313), 23.4 microg/mL adenine (Sigma-Aldrich, cat. A2786), 97.3 U/mL penicillin-streptomycin (Invitrogen, cat. 15140122), 1.9 mM L-glutamine (Invitrogen, cat. 25030081), and 9.7 microM Y-27632 dihydrochloride (Tocris Bioscience, Bristol, United Kingdom, cat. 1254). The PDCs were cultured in complete DMEM/F12 media without 9.7 microM Y-27632 dihydrochloride for at least two passages prior to the screen. The established cell line HOP-62 was cultured in RPMI 1640 medium, HEPES (Invitrogen, cat. 22400105) with 10% defined fetal bovine serum (HyClone Laboratories Inc., cat. SH30070.03) and 2 mM L-glutamine (Invitrogen, cat. 25030081). The pooled donor HUVEC were cultured in endothelial cell growth medium 2 (PromoCell, Heidelberg, Germany, cat. C-22011) and the hMSC were cultured in mesenchymal stem cell growth medium 2 (PromoCell, cat. C-28009). For all experiments, HUVEC and hMSC were used at passages </=5, while the malignant cell lines were used at passages </=15. […]

[1] = curve of first compound, second compound 0.0316 µM
[2] = curve of first compound, second compound 0.1 µM
[3] = curve of first compound, second compound 0.316 µM
[4] = curve of first compound, second compound 1 µM
[5] = curve of first compound, second compound 3.16 µM
[6] = second compound 0.0316 µM, first compound 0.0316 µM
[7] = second compound 0.0316 µM, first compound 0.1 µM
[8] = second compound 0.0316 µM, first compound 0.316 µM
[9] = second compound 0.0316 µM, first compound 1 µM
[10] = second compound 0.0316 µM, first compound 3.16 µM
[11] = second compound 0.0316 µM, first compound 10 µM
[12] = second compound 0.1 µM, first compound 0.0316 µM
[13] = second compound 0.1 µM, first compound 0.1 µM
[14] = second compound 0.1 µM, first compound 0.316 µM
[15] = second compound 0.1 µM, first compound 1 µM
[16] = second compound 0.1 µM, first compound 3.16 µM
[17] = second compound 0.1 µM, first compound 10 µM
[18] = second compound 0.316 µM, first compound 0.0316 µM
[19] = second compound 0.316 µM, first compound 0.1 µM
[20] = second compound 0.316 µM, first compound 0.316 µM
[21] = second compound 0.316 µM, first compound 1 µM
[22] = second compound 0.316 µM, first compound 3.16 µM
[23] = second compound 0.316 µM, first compound 10 µM
[24] = second compound 1 µM, first compound 0.0316 µM
[25] = second compound 1 µM, first compound 0.1 µM
[26] = second compound 1 µM, first compound 0.316 µM
[27] = second compound 1 µM, first compound 1 µM
[28] = second compound 1 µM, first compound 3.16 µM
[29] = second compound 1 µM, first compound 10 µM
[30] = second compound 3.16 µM, first compound 0.0316 µM
[31] = second compound 3.16 µM, first compound 0.1 µM
[32] = second compound 3.16 µM, first compound 0.316 µM
[33] = second compound 3.16 µM, first compound 1 µM
[34] = second compound 3.16 µM, first compound 3.16 µM
[35] = second compound 3.16 µM, first compound 10 µM
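Also: spheroids exposed to agents for seven days before readout.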

Row | SMILES | IC50 [2] [nM] | IC50 [3] [nM] | IC50 [4] [nM] | IC50 [5] [nM] | viability, T/C [12] [%] | viability, T/C [13] [%] | viability, T/C [14] [%] | viability, T/C [15] [%] | viability, T/C [16] [%] | viability, T/C [17] [%] | viability, T/C [18] [%] | viability, T/C [19] [%] | viability, T/C [20] [%] | viability, T/C [21] [%] | viability, T/C [22] [%] | viability, T/C [23] [%] | viability, T/C [24] [%] | viability, T/C [25] [%] | viability, T/C [26] [%] | viability, T/C [27] [%] | other results
1 | COc1cc2nccc(Oc3ccc(NC(=O)C4(C(=O)Nc5ccc(F)cc5)CC4)cc3)c2cc1OC + C=CC(=O)N1CCN(c2nc(OCC3CCCN3C)nc3c2CCN(c2cccc4cccc(C)c24)C3)CC1CC#N | < 31.6 | < 31.6 | < 31.6 | < 31.6 | 14.3 | 15.8 | 15.3 | 13.3 | 5.66 | 6.73 | 15.4 | 16.3 | 13.1 | 13.7 | 4.32 | 5.26 | 14.2 | 14.5 | 10.5 | 7.23 | IC50 [1]: < 31.6 nM; viability, T/C [6]: 17.9%; viability, T/C [7]: 18%; viability, T/C [8]: 15.1%; viability, T/C [9]: 13.3%; viability, T/C [10]: 7.03%; viability, T/C [11]: 7.62%; viability, T/C [28]: 1.37%; viability, T/C [29]: 0.49%; viability, T/C [30]: 0.1%; viability, T/C [31]: 0.12%; viability, T/C [32]: 0.12%; viability, T/C [33]: 0.09%; viability, T/C [34]: 0.09%; viability, T/C [35]: 0.19%
2 | C=CC(=O)N1CCN(c2nc(=O)n(-c3c(C)ccnc3C(C)C)c3nc(-c4c(O)cccc4F)c(F)cc23)C(C)C1 (configuration not stated) | – | – | – | – | – | – | – | – | – | – | – | – | – | – | – | – | – | – | – | – | viability, T/C (compound 0.1 µM): 23.2% [middle of 17 runs]; viability, T/C (compound 0.316 µM): 22.9% [middle of 17 runs]; viability, T/C (compound 1 µM): 22.8% [middle of 17 runs]; viability, T/C (compound 3.16 µM): 27.4% [middle of 17 runs]; viability, T/C (compound 10 µM): 32.9% [middle of 17 runs]; IC50 (compound alone, run of 07/12/2021): < 100 nM; IC50 (compound alone, run of 07/19/2021): < 100 nM; IC50 (compound alone, run of 07/26/2021): < 100 nM
3 | COc1cc2nccc(Oc3ccc(NC(=O)C4(C(=O)Nc5ccc(F)cc5)CC4)cc3)c2cc1OC + CC1OCC2(CCN(c3cnc(Sc4ccnc(N)c4Cl)c(N)n3)CC2)C1N | < 31.6 | < 31.6 | < 31.6 | < 31.6 | 48.9 | 40 | 31.5 | 29.4 | 34.2 | 26.9 | 28.8 | 26.2 | 29 | 27.8 | 14.6 | 16.6 | 25.3 | 25.9 | 24.1 | 15.5 | IC50 (curve of first compound, second compound 10 µM): < 31.6 nM; viability, T/C [28]: 8.65%; viability, T/C [29]: 7.11%; viability, T/C [30]: 25.3%; viability, T/C [31]: 20.1%; viability, T/C [32]: 11.7%; viability, T/C [33]: 12%; viability, T/C [34]: 7.91%; viability, T/C [35]: 4.69%; viability, T/C (second compound 10 µM, first compound 0.0316 µM): 20.7%; viability, T/C (second compound 10 µM, first compound 0.1 µM): 14.8%; viability, T/C (second compound 10 µM, first compound 0.316 µM): 12.2%; viability, T/C (second compound 10 µM, first compound 1 µM): 8.99%; viability, T/C (second compound 10 µM, first compound 3.16 µM): 4.63%; viability, T/C (second compound 10 µM, first compound 10 µM): 4.36%
4 | CC1(C)CCC(CN2CCN(c3ccc(C(=O)NS(=O)(=O)c4ccc(NCC5CCOCC5)c([N+](=O)[O-])c4)c(Oc4cnc5[nH]ccc5c4)c3)CC2)=C(c2ccc(Cl)cc2)C1 | – | – | – | – | – | – | – | – | – | – | – | – | – | – | – | – | – | – | – | – | viability, T/C (compound 1 µM): 51.1% [middle of 5 runs]; viability, T/C (compound 3.16 µM): 11.1% [middle of 5 runs]; viability, T/C (compound 10 µM): 5.66% [middle of 5 runs]; IC50 (curve of compound): 918 nM [middle of 5 runs]
5 | CC(C)NCC(C(=O)N1CCN(c2ncnc3c2C(C)CC3O)CC1)c1ccc(Cl)cc1 (configuration not stated) + C=CC(=O)N1CCN(c2nc(OCC3CCCN3C)nc3c2CCN(c2cccc4cccc(C)c24)C3)CC1CC#N | < 31.6 | < 31.6 | < 31.6 | < 31.6 | 27.3 | 30 | 22.8 | 19.5 | 14.5 | 7.59 | 26.8 | 26.6 | 26.5 | 18.9 | 15.7 | 8.89 | 27.4 | 24.1 | 18.9 | 15 | IC50 [1]: < 31.6 nM; viability, T/C [6]: 29.1%; viability, T/C [7]: 29.5%; viability, T/C [8]: 23.4%; viability, T/C [9]: 23.5%; viability, T/C [10]: 18%; viability, T/C [11]: 7.87%; viability, T/C [28]: 12.5%; viability, T/C [29]: 4.68%; viability, T/C [30]: 0.13%; viability, T/C [31]: 0.12%; viability, T/C [32]: 0.12%; viability, T/C [33]: 0.15%; viability, T/C [34]: 0.18%; viability, T/C [35]: 0.25%
